Measurements as given in US9592223B2, “Small molecule inhibitors of MALT1” (Cornell University, priority 2012, dated 2017).

What was measured:
[1] = test system: MALT1 dependent ABC-DLBCL cells HBL-1, TMD8, OCI-Ly3 and OCI-Ly10; test: Growth inhibition, MALT1 dependent cell lines; format: cell-based, human; settings: increasing concentrations, single dose, 48 hr
Description: Endogenous MALT1 activity was evaluated by Western blotting for A20, BCL10 and CYLD; and NF-κB activation, by phospho-IκB-α and total IκB-α. Dependence on MALT1 proteolytic activity for proliferation was tested by 50[…]μM Z-VRPR-FMK treatment for 48 hr. […] The U2932 and HLY1 ABC-DLBCL cell lines harbor mutations in TAK1 and A20, which activate NF-κB signaling downstream of MALT1.
Cell proliferation was determined by ATP quantification using a luminescent method (CellTiter-Glo, Promega, Madison, Wis.) and Trypan blue dye-exclusion (Sigma, St. Louis, Mo.). Cell viability in drug-treated cells was normalized to their respective controls (fractional viability) and results are given as 1-fractional viability. […]
DLBCL cell lines were grown in exponential growth conditions during the 48 hr of treatment. Cell proliferation was determined by ATP quantification using a luminescent method (CellTiter-Glo, Promega, Madison, Wis.) and Trypan blue dye-exclusion (Sigma, St. Louis, Mo.). Luminescence was measured using the Synergy4 microplate reader (BioTek Instruments, Winooski, Vt.). Standard curves for each cell line were calculated by plotting the cell number (determined by the Trypan blue method) against their luminescence values and number of cells was calculated accordingly. […]

Caspase-8 = Caspase-8 (Homo sapiens, UniProt Q14790); test: Caspase selectivity; format: biochemical
[2] = test system: NF-κB signaling gene signatures; test: Gene expression profiling and GSEA in HBL-1 and TMD8 cell lines; format: cell-based, human; settings: 8 hr, HBL-1 200 nM, TMD8 500 nM
Description: The impact of MI-2 on NF-κB signaling was further characterized by gene expression profiling. […] Z-VRPR-FMK was previously shown to attenuate the NF-κB signature in ABC-DLBCL cell lines (Hailfinger et al., 2009). […] GSEA was next performed using two independent ABC-DLBCL NF-κB gene expression signatures derived from either OCI-Ly3 and OCI-Ly10 or HBL-1 cell lines.
RNA integrity was determined using the RNA 6000 Nano LabChip Kit on an Agilent 2100 Bioanalyzer (Agilent Technologies, Santa Clara, Calif.). Samples were processed following Illumina recommendations and cRNA was hybridized to the HumanHT-12 v4 Expression BeadChip (Illumina, San Diego, Calif.). Arrays were scanned on the iScan system. Data pre-processing and quality control were performed using GenomeStudio. The data were log2-transformed combined with quantile normalization (Du et al., 2008). GEO accession number GSE40003.
In order to determine the biological significance of the results, enrichment tests with respect to sets of related genes were carried out. To this end, we used GSEA (Gene Set Enrichment Analysis) software, and datasets were pre-ranked by fold change value (Subramanian et al., 2005). The p-values for each gene-set were computed on the basis of 1,000 iterations and multiple hypotheses testing correction for FDR calculation (Storey and Tibshirani, 2003).

OCI-Ly1 = test: CFSE dilution assay by flow cytometry, GCB-DLBCL line; format: cell-based, human; settings: viable cells at 48, 72 and 96 h
Description: Cell proliferation was examined using the CFSE dilution assay by flow cytometry on viable cells at 48, 72 and 96 h. […] Trypan blue exclusion and apoptosis assessed by Annexin V^+ DAPI^− flow cytometry was measured every 48 hr for a period of 14 days.
CFSE covalently labels long-lived intracellular molecules with carboxyfluorescein. Following each cell division, fluorescent molecules dilute in daughter cells, allowing comparative study of the kinetics of cell division. Cells were stained with DAPI (Sigma), followed by flow cytometry. DAPI^neg cells were gated for analysis.

[3] = test system: HBL-1 ABC-DLBCL xenografts; test: HBL-1 xenograft in NOD-SCID mice; format: in vivo; settings: IP 25 mg/kg/day
Description: Animals were sacrificed 24 hr after the fourteenth injection.
Eight-week old male SCID NOD.CB17-Prkdc^scid/J mice were subcutaneously injected with low-passage 10^7 human HBL-1, TMD8 or OCI-Ly1 cells. Treatment was administered by intra-peritoneal injection. Tumor volume was monitored by three-weekly digital calipering. All procedures followed US NIH protocols and were approved by the Animal Institute Committee of the Weill Cornell Medical College.
Eight-week old male SCID NOD.CB17-Prkdc^scid/J mice were purchased from Jackson Laboratories (Bar Harbor, Minn.) and housed in a clean environment. Mice were subcutaneously injected with low-passage 10^7 human TMD8 or OCI-Ly1 cells in 50% matrigel (BD Biosciences, #354234). Treatment was initiated when tumors reached an average size of 120 mm^3 (17 days post-transplantation). Drugs were reconstituted in DMSO and stored at −80° C. until used and were administered by intra-peritoneal injection. Tumor volume was monitored by three-weekly digital calipering (Fisher Scientific, Thermo Scientific, Rockford, Ill.) and calculated using the formula (smallest diameter^2×largest diameter)/2. Data were expressed as mean±SEM, and differences were considered statistically significant at p<0.05 by paired Student's t-test. All procedures involving animals followed US NIH protocols and were approved by the Animal Institute Committee of the Weill Cornell Medical College of Cornell University.
Paraffin-embedded tumor xenografts were sectioned, dewaxed and submitted to antigen retrieval. For IF-P, Alexa Fluor-488 conjugated secondary antibodies from Invitrogen where used and cell nuclei where counterstained with DAPI. Fluorescent images were taken using an Axiovert 200M fluorescent microscope (Carl Zeiss Inc., Thornwood, N.Y.). Oberkochen, Germany). For IHC, biotin-conjugated secondary antibodies where used. Then avidin/biotin peroxidase was applied to the slides (Vector Laboratories). Color was developed with diaminobenzoate chromogen peroxidase substrate (Vector) and counterstained with hematoxilin-eosyn. […]

Caspase-8, sequence (Q14790 217-374 limits assumed): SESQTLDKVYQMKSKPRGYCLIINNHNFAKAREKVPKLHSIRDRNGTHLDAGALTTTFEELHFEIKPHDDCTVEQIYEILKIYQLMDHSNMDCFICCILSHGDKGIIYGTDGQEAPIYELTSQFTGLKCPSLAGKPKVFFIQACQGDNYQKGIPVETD
Caspase-8, sequence (Q14790 385-479 limits assumed): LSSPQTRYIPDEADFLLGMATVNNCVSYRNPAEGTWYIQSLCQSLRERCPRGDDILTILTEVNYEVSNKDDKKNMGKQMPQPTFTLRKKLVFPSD

Which growth inhibition [1] does the source give for `COCCOc1nc(-c2ccc(Cl)c(Cl)c2)n(-c2ccc(NC(=O)CCl)cc2)n1` [MI-2] here?
The growth inhibition was “selective for MALT1 dependent cell lines”.

What about the “activity against Caspase-8” value (Caspase-8) of the same compound?
Its value is “little activity”.

And the “GSEA of ABC-DLBCL NF-κB gene expression signatures” value [2]?
Its value is “significant enrichment of these NF-κB gene sets among genes downregulated”.

What about the “GSEA of Z-VRPR-FMK signature” value [2] of the same compound?
Its value is “significantly enriched among genes downregulated after MI-2-treatment”.

And the “cell proliferation (CFSE dilution)” value (OCI-Ly1)?
The value was “did not affect”.

What about the “xenograft growth vs. vehicle” value ([3]; fourteen injections, p=0.014) of the same compound?
The value was “profoundly suppressed the growth”.

What about the “proliferation (Ki-67 staining)” value ([3]; p<0.0001) of the same compound?
The value was “significant decrease in proliferation”.

What about the “apoptotic cells (TUNEL assay)” value ([3]; p=0.0008) of the same compound?
The value was “significant increase in apoptotic cells”.
